Source: patent US7468270B2, “Probiotic strains, a process for the selection of them, compositions thereof, and their use” (Puleva Biotech, S.A., priority 2003, dated 2008)

System: Salmonella typhmurium and Escherichia coli
Assay: Production of antimicrobial metabolites, agar well diffusion assay
Format: cell-based
Settings: dilution of each metabolic acid at pH 4.5; data not shown
Protocol: The probiotic strains of this invention were assessed for their capability to produce antimicrobial metabolites using an agar well diffusion assay. MRS agar plates containing 10^6 cfu/ml of different pathogenic bacteria strain (Salmonella typhmurium and Escherichia coli) were prepared. Wells, with a diameter of 5 mm, where then cut in the agar using a sterile cork-borer. Then, 50 μl of a 2 fold concentrate supernatant of each probiotic strain culture were added to the wells and allowed to diffuse into the agar during a 2 hours preincubation period at 4° C., followed by aerobic incubation of the plates at 37° C. for 16-18 hours. The antimicrobial activity of each supernatant was considered high if the diameter of the inhibition hallo for both pathogenic bacteria strains was >12, moderate between 8 and 12, and slight <8 (FIG. 11)
Moreover, it was also tested if the antimicrobial activity of the supernatants was due to a antimicrobial substance or to the production of metabolic acids. […] It was also tested the antimicrobial capabilities of supernatants obtained from bacterial cultures using glucose or lactose as a carbohydrate source.

| SMILES | Inhibition of growth of Salmonella or E. coli by a dilution of metabolic acid |
| --- | --- |
| CC(=O)O [acetic] | None of these situations inhibited the growth |
| CCCC(=O)O [butyric, butyric acid] | None of these situations inhibited the growth |
